In ChEMBL document CHEMBL3763135, “Synthesis and evaluation of thiophene-based guanylhydrazones (iminoguanidines) efficient against panel of voriconazole-resistant fungal isolates” (Bioorg Med Chem, 2016):
Values after ≈ are worked out from the molar mass of the structure shown. Active and inactive are the calls of the source. The rule behind the calls is not given here.

What was measured:
[1] = Induction of membrane damage in PC/PS liposome assessed as calcein release at MIC after 30 mins by fluorescence-based liposome leakage assay; format: functional
Candida albicans [2] = assay: Antifungal activity against Candida albicans CA5 by broth dilution method; format: functional
Candida albicans [3] = assay: Induction of DNA intercalation with Candida albicans genomic DNA at 25 ug/ml after 12 hrs by ethidium bromide staining based gel electrophoresis method
Aspergillus fumigatus = assay: Antifungal activity against Aspergillus fumigatus ATCC 13073 by broth dilution method; format: functional
Candida albicans [4] = assay: Antifungal activity against Candida albicans ATCC 10231 by broth dilution method; format: functional
[5] = tested on: Trichophyton mentagrophytes; assay: Antifungal activity against Trichophyton mentagrophytes DMT4 by broth dilution method; format: functional
Microsporum canis = assay: Antifungal activity against Microsporum canis DMT2 by broth dilution method; format: functional
[6] = Hemolytic effect in sheep RBC assessed as release of hemoglobin at MIC after 1 hr; format: ADME, cell-based, Ovis aries, Erythrocyte; details: sheep red blood cells, read-out: Activity
Candida parapsilosis [7] = assay: Antifungal activity against Candida parapsilosis C27 by broth dilution method; format: functional; details: Lodderomyces parapsilosis
Fusarium oxysporum = assay: Antifungal activity against Fusarium oxysporum AB18 by broth dilution method; format: functional
Pichia kudriavzevii [8] = assay: Antibiofilm activity against Pichia kudriavzevii ATCC 34135 assessed as disruption of preformed biofilm after 24 hrs by concanavalin A-FITC-staining based fluorescence microscopic analysis; format: functional
Pichia kudriavzevii [9] = assay: Antifungal activity against Candida krusei ATCC 34135 by broth dilution method; format: functional
Candida albicans [10] = assay: Antibiofilm activity against Candida albicans assessed as inhibition of Spider medium-induced hyphae formation at sub-MIC after 24 hrs by propidium iodide and FITC-conjugated concanavaline A staining based fluorescence microscopy; format: functional, organism-based
[11] = Hemolytic effect in sheep RBC assessed as release of hemoglobin at cytotoxic IC50 after 1 hr; format: cell-based, Ovis aries, Erythrocyte; details: sheep red blood cells, read-out: Activity
Candida parapsilosis [12] = assay: Antibiofilm activity against Candida parapsilosis C27 assessed as disruption of preformed biofilm after 24 hrs by concanavalin A-FITC-staining based fluorescence microscopic analysis; format: functional
MRC5 = assay: Cytotoxicity against human MRC5 cells after 48 hrs by MTT assay; format: cell-based; details: MRC5, 48 h
Candida albicans [13] = assay: Antibiofilm activity against Candida albicans ATCC 10231 assessed as disruption of preformed biofilm after 24 hrs by concanavalin A-FITC-staining based fluorescence microscopic analysis; format: functional

Row | Molecule | Activity [1] | MIC (Candida albicans [2]) | Activity (Candida albicans [3]) | MIC (Aspergillus fumigatus) | MIC (Candida albicans [4]) | MIC [5] | MIC (Microsporum canis) | hemolysis at 1 h [6] | MIC (Candida parapsilosis [7]) | MIC (Fusarium oxysporum) | MBEC (Pichia kudriavzevii [8]) | MIC (Pichia kudriavzevii [9]) | Activity (Candida albicans [10]) | hemolysis at 1 h [11] | MBEC (Candida parapsilosis [12]) | IC50 (MRC5) | MBEC (Candida albicans [13])
1 | NYSTATIN | 21% |  |  |  |  |  |  |  |  |  |  |  |  |  |  |  | 
2 | Cl.N=C(N)N/N=C/c1ccc(-c2ccc(F)cc2)s1 |  | 1.95 µg/mL | Active | 25 µg/mL | 3.9 µg/mL | 1.56 µg/mL | 0.97 µg/mL | ≤ 10% | 6.25 µg/mL | > 250 µg/mL | >1000 µg/mL | 6.25 µg/mL | Active | ≤ 10% | >1000 µg/mL | 4 µg/mL | >1000 µg/mL
3 | Cl.N#Cc1ccc(-c2ccc(/C=N/NC(=N)N)s2)cc1 |  | 7.8 µg/mL | Active | 25 µg/mL | 3.9 µg/mL | 6.25 µg/mL | 0.97 µg/mL | ≤ 10% | 12.5 µg/mL | > 250 µg/mL | >1000 µg/mL | 25 µg/mL | Active | ≤ 10% | 1000 µg/mL | 5 µg/mL | 250 µg/mL
4 | O=Cc1ccc(-c2ccccc2)s1 |  | 250 µg/mL (≈ 1330 µM) | inactive | 125 µg/mL (≈ 664 µM) | 250 µg/mL (≈ 1330 µM) | 250 µg/mL (≈ 1330 µM) | 250 µg/mL (≈ 1330 µM) | ≤ 10% | > 250 µg/mL | 250 µg/mL (≈ 1330 µM) | >1000 µg/mL | > 250 µg/mL | Active | ≤ 10% | >1000 µg/mL | 50 µg/mL (≈ 266 µM) | >1000 µg/mL
5 | Cl.N=C(N)N/N=C/c1ccc(-c2ccccc2)o1 |  | 15.6 µg/mL | Active | 125 µg/mL | 7.8 µg/mL | 6.25 µg/mL | 1.56 µg/mL | ≤ 10% | 50 µg/mL | 125 µg/mL | 500 µg/mL | 50 µg/mL | Active | ≤ 10% | 1000 µg/mL | 20 µg/mL | 500 µg/mL
6 | Cl.N=C(N)N/N=C/c1ccc(-c2ccccc2)s1 |  | 1.95 µg/mL | Active | 25 µg/mL | 1.95 µg/mL | 3.12 µg/mL | 1.56 µg/mL | ≤ 10% | 6.25 µg/mL | 62.5 µg/mL | >1000 µg/mL | 6.25 µg/mL | Active | ≤ 10% | >1000 µg/mL | 5 µg/mL | 1000 µg/mL
7 | COc1ccc(-c2ccc(/C=N/NC(=N)N)s2)cc1.Cl |  | 3.9 µg/mL | Active | 25 µg/mL | 7.8 µg/mL | 3.12 µg/mL | 0.97 µg/mL | ≤ 10% | 6.25 µg/mL | > 250 µg/mL | 1000 µg/mL | 6.25 µg/mL | Active | ≤ 10% | 1000 µg/mL | 5 µg/mL | 500 µg/mL
